The text below walks through data of US8933245B2, “Preservation of ergothioneine” (ELC Management LLC, priority 2009, dated 2015).

The nature of data set [1]: Preventing trimethylamine odor by addition of compounds before heating ergothioneine with sodium hydroxide. Format: physicochemical. The following applies: for % EGT (w/v): boiled 10 minutes, HPLC. As for the experimental part:
Samples were prepared in glass tubes with screw caps with about 0.05% (w/v) ergothioneine in water, a test sample, at the indicated concentration, and 0.1N NaOH (except for the first tube, in which NaOH was omitted as a negative control). The pH of each sample was determined by litmus paper, and then the tubes capped and placed in a boiling water bath for 10 minutes. The tubes were then cooled to room temperature, and then each one was uncapped and smelled by three testers, each of whom scored the odor. The scores were converted to a scale of 0 (no odor) to 3 (strong fishy trimethylamine odor) and then averaged.

The conditions of data set [2]: cited from earlier work; for Ka: acid listed with one ionized form.
The nature of data set [3]: Formation of fishy amine odor by boiling ergothioneine with sodium hydroxide or other components. The data set is classed as physicochemical. As for the experimental part: This became the assay system used to test agents and procedures for reduction or prevention of the odor.
Four samples of a 5 ml ergothioneine solution at 0.1% (w/v) were prepared in glass test tubes with screw caps. To the first was added 5 ml of water, to the second 5 ml of 0.2% (w/v) sodium metabisulfite, to the third 4 ml of water and 1 ml of 1N sodium hydroxide, and to the fourth 5 ml of 0.2% (w/v) citric acid. […] The samples were boiled for 10 minutes and each one was smelled.
This allowed the testing of methods to inhibit the formation of the odor and to suppress the odor after formation.

The nature of data set [4]: Stability of ergothioneine during storage with and without citric acid (HPLC). The data set is classed as physicochemical. The conditions noted are these: percent of starting concentration, 2 mM in water; for % EGT with citric acid: 0.2% citric acid. As for the experimental part:
The samples were stored at 4° C., 25° C. or 40° C. for 30 or 60 days and then analyzed by HPLC. Each vial was used once and then discarded. Each measurement was made in triplicate and the results averaged. A standard curve of ergothioneine concentration was constructed at each time point to quantify the amount of ergothioneine in each vial. Each amount in Table 2 is expressed as percentage of the amount measured in the initial sample at the start of the experiment.

Data set [5] can be described thus: Stability of ergothioneine solution at acidic pH on heating. The data set is classed as physicochemical. The following applies: 0.05% solution, pH 5, heating 40 C for 60 days. The source says:
It has been observed that ergothioneine is quite stable at acidic pH. At pH 5 a 0.05% solution remains within 1% of its concentration after heating 40 C for 60 days. However, the reports of its stability in alkali are mixed in the literature. See, for example, Philip Hartman. “Ergothioneine as antioxidant”, Methods Enzymol. 186:310-318, 1990 at p. 311 (“ . . . the sulfur atom of Ergothioneine is remarkably stable to alkali”); H. Heath and G. Toennies. “The preparation and properties of Ergothioneine disulphide”, J. Chem. Soc. pages 204-210, (1958) at p. 204 (“the sulphur is completely unaffected by boiling 50% aqueous potassium hydroxide.”); Oxis International, Inc. Compound Monograph “L-Ergothioneine. Revision III”, at p. […] “Synthesis of L-(+)-Ergothioneine”, J. Org. Chem. 60:6296-6301, 1995 at p. 6296 (“this explains its stability toward oxidative dimerization”).

A short description of data set [6]: Formation of yellow addition product of ergothioneine and sodium metabisulfite. Format: physicochemical. As for the experimental part:
The vials were sealed and mixing the samples was avoided. The samples were incubated and color development observed. The solutions were examined at 1 hour, and the optical density at 405 nm was measured at 2 hours (Table 9).
The cap was removed and the solution was then shaken for 3 to 4 minutes and ambient air was bubbled through it to drive out the dissolved sulfur dioxide gas. […] Therefore the loss of ergothioneine after addition of sodium metabisulfite is due to formation of an addition product which is reversible, and the ergothioneine is not permanently lost.

Assay in data set [7]: as above
The following applies: 1.25% ergothioneine and 5% sodium metabisulfite; cap removed, shaken, ambient air bubbled; after 6 to 7 minutes. Format: physicochemical.

Setting [8] is: test sample 0.01%, about 0.05% ergothioneine, 0.1N NaOH, litmus paper.
The mark [9] stands for this setting: test sample 0.05%, about 0.05% ergothioneine, 0.1N NaOH, litmus paper.
Setting [10] is: test sample 0.2%, about 0.05% ergothioneine, 0.1N NaOH, litmus paper.
[11] abbreviates: ergothioneine 1.25%, sodium metabisulfite 5.0%.
Setting [12] is: ergothioneine 1.25%, sodium metabisulfite 7.5%.
[13] abbreviates: ergothioneine 1.25%, sodium metabisulfite 10%.
[14] abbreviates: ergothioneine 1.25%, sodium metabisulfite 12.5%.
Where [15] appears, read: ergothioneine 1.25%, sodium metabisulfite 15%.
The mark [16] stands for this setting: ergothioneine 1.25%, sodium metabisulfite 17.5%.
Setting [17] is: ergothioneine 1.25%, sodium metabisulfite 20%.
Setting [18] is: ergothioneine 1.25%, sodium metabisulfite 22.5%.
The mark [19] stands for this setting: ergothioneine 1.25%, sodium metabisulfite 25%.
Where [20] appears, read: ergothioneine 1.25%, sodium metabisulfite […].
Setting [21] is: ergothioneine […], sodium metabisulfite 0.

Where “and” joins values, the source holds several entries; their conditions need not be identical. Equal values may be shown once.

Consider `Cl` [Hydrochloric acid], for which the “% EGT (w/v)” value is 0.050 % (w/v) in data set [1] (test sample 0.0001%, 0.1N NaOH) and 0.050 % (w/v) in data set [1] (test sample 0.01%, 0.1N NaOH). In addition, the pH in data set [1] (test sample 0.0001%, about 0.05% ergothioneine, 0.1N NaOH, litmus paper) was 11.5; in data set [1] (setting [8]), 10.

As for `CC(=O)O` [acetic acid], the “% EGT (w/v)” value is recorded as 0.050 % (w/v) in data set [1] (test sample 0.01%, 0.1N NaOH); 0.052 % (w/v) in data set [1] (test sample 0.05%, 0.1N NaOH); 0.052 % (w/v) in data set [1] (test sample 0.2%, 0.1N NaOH). Moreover, the results for the pH in data set [1] (setting [8]), in data set [1] (setting [9]) and in data set [1] (setting [10]) were 10.5, 8 and 4, respectively. The Ka in data set [2] was 1.74E−5.

Consider `O=C1O[C@H]([C@@H](O)CO)C(O)=C1O` [ascorbic acid], for which the “% EGT (w/v)” value in data set [1] (test sample 0.01%, 0.1N NaOH) is 0.050 % (w/v); in data set [1] (test sample 0.05%, 0.1N NaOH) it was 0.050 % (w/v); in data set [1] (test sample 0.2%, 0.1N NaOH), 0.047 % (w/v). Also, the pH in data set [1] (setting [8]) stood at 10.5; in data set [1] (setting [9]), 10.5; in data set [1] (setting [10]), 5.

Consider `OB(O)O` [boric acid], for which, in data set [1], the pH is 8.5 and 10 and 10.5. Further, the “% EGT (w/v)” value in data set [1] (test sample 0.01%, 0.1N NaOH) is given as 0.050 % (w/v); in data set [1] (test sample 0.05%, 0.1N NaOH), 0.051 % (w/v); in data set [1] (test sample 0.2%, 0.1N NaOH), 0.052 % (w/v).

Turning to `O=C(O)CC(O)(CC(=O)O)C(=O)O` [citric acid], the pH in data set [3] is 5; in data set [1], 8 and 10. The “% EGT (w/v)” value in data set [1] (test sample 0.01%, 0.1N NaOH) is reported as 0.052 % (w/v); in data set [1] (test sample 0.05%, 0.1N NaOH) it was 0.053 % (w/v); in data set [1] (test sample 0.2%, 0.1N NaOH), 0.054 % (w/v).

As to `C[N+](C)(C)[C@@H](Cc1c[nH]c(=S)[nH]1)C(=O)[O-]` [ergothioneine], the “% EGT with citric acid” value in data set [4] (4° C., 30 days) worked out at 101.6%; in data set [4] (4° C., 60 days), 105.8%; in data set [4] (25° C., 30 days) it was 101.5%; in data set [4] (25° C., 60 days) it was 102.2%; in data set [4] (40° C., 30 days), 101.1%; in data set [4] (40° C., 60 days), 99.6%. Further, the “% EGT without citric acid” value was 96.1% in data set [4] (4° C., 30 days); 106.5% in data set [4] (4° C., 60 days); 84.0% in data set [4] (25° C., 30 days); 100.5% in data set [4] (25° C., 60 days); 86.3% in data set [4] (40° C., 30 days); 99.8% in data set [4] (40° C., 60 days). The change of concentration in data set [5] was not above 1%. In data set [6] (1.25% ergothioneine and 5% sodium metabisulfite, one week at room temperature in a capped tube), the color of solution entry is given as “intense lemon yellow”. In addition, the “Color description at 1 h” value in data set [6] (setting [11]) is “Near colorless”; in data set [6] (setting [12]), “Yellow tinge”; in data set [6] (setting [13]), “Slight yellow”; in data set [6] (setting [14]), “Light yellow”; in data set [6] (setting [15]), “Yellow”; in data set [6] (setting [16]), “Yellow”. Further, the “Color description at 1 h” value in data set [6] (setting [17]) was “Light lemon yellow”; in data set [6] (setting [18]), “Intense lemon yellow”; in data set [6] (setting [19]), “Intense lemon yellow”; in data set [6] (setting [20]), “Colorless”; in data set [6] (setting [21]) it was “Colorless”. Besides, the “OD405 at 2 hr” value in data set [6] (setting [11]) was determined as 0.104; in data set [6] (setting [12]), 0.186; in data set [6] (setting [13]) it was 0.265; in data set [6] (setting [14]), 0.456; in data set [6] (setting [15]), 0.593; in data set [6] (setting [16]), 0.966. Moreover, the “OD405 at 2 hr” value is listed as 1.993 in data set [6] (setting [17]); 2.873 in data set [6] (setting [18]); 3.126 in data set [6] (setting [19]); 0.044 in data set [6] (setting [20]); 0.004 in data set [6] (setting [21]). Further, the “color of solution after driving out sulfur dioxide” value in data set [7] is recorded as “nearly colorless with a yellow tinge”.

On to `CCCCCCC(=O)O` [heptanoic acid], for which the Ka in data set [2] is given as 1.29E−5.

Regarding `CCCCC(=O)O` [pentanoic acid], in data set [2], the Ka is given as 3.31E−5.

As for `O=P(O)(O)O` [phosphoric acid], the “% EGT (w/v)” value in data set [1] (test sample 0.01%, 0.1N NaOH) is reported as 0.052 % (w/v); in data set [1] (test sample 0.05%, 0.1N NaOH), 0.054 % (w/v); in data set [1] (test sample 0.2%, 0.1N NaOH) it was 0.058 % (w/v).

Regarding `[Na+].[OH-]` [sodium hydroxide], the pH entry in data set [3] is “approximately 10”.

As to `O=S([O-])S(=O)(=O)[O-].[Na+].[Na+]` [sodium metabisulfite], the pH in data set [3] (litmus paper, before boiling, 5 ml 0.1% ergothioneine plus 5 ml addition) was found to be 5; in data set [1] (setting [8]), 10; in data set [1] (setting [9]), 9.5; in data set [1] (setting [10]), 6.5. Moreover, the “% EGT (w/v)” value in data set [1] (test sample 0.01%, 0.1N NaOH) was 0.044 % (w/v); in data set [1] (test sample 0.05%, 0.1N NaOH) it was 0.037 % (w/v); in data set [1] (test sample 0.2%, 0.1N NaOH) it was 0.029 % (w/v). For the same compound, in data set [6] (after addition of sodium metabisulfite, room temperature without boiling), the “time to apparent reduction in the amount of ergothioneine (HPLC)” value is not above 10 min.

Take `O=S(O)O` [sulfurous acid]: the “Ka (1)” value in data set [2] (first ionized form) is recorded as 1.41E−2. In addition, the “Ka (2)” value in data set [2] (second ionized form) is 6.31E−8.

In the case of `O=c1[nH]c(=O)c2[nH]c(=O)[nH]c2[nH]1` [uric acid], the Ka in data set [2] is 1.29E−4.
